Here are results for five molecules from patent US9498460B1, “Halogenated tetracyclic compounds” (KING SAUD UNIVERSITY, priority 2016, dated 2016).

≈ marks a conversion by molar mass, not a printed value.

The test system of series [1] is lung carcinoma cell line A549. The series is described as follows: MTT growth inhibition, A549. Format: cell-based. The conditions noted are these: for IC50: Homo sapiens, A549, MTT test, 96-well plate, serial dilution, spread in brackets; for sensitivity of treated cancer cells, times higher: cell line printed as A459, comparator not stated. The method, then: (§1) Growth inhibitions were measured in 96-well plates. Aliquots of 120 μL of the suspended cells (50,000 mL^−1) were given to 60 μL of a serial dilution of the inhibitor (S). After 5 days of incubations, growths were determined the MTT assay (MTT=3-(4,5-dimethylthiazol-2-yl)-2,5-diphenyltetrazolium bromide). Briefly, 20 μl MTT (5 mg/mL in PBS) were added to each well, and the plates were incubated for 2 h at 37° C., and 5% CO2-atmosphere in the cell incubator. The supernatants were then discarded and 200 μl of isopropanol/HCl were added to each well and mixed to dissolve the formazan crystals. The absorbance was then read at 550 nm using a microplate reader (Thermo Scientific, USA). The viability of the cells was calculated by dividing the absorbance average of the treated cells by the absorbance average of the control cells multiply 100%. […] The activities of the cells were plotted against the concentration of the drugs, and the IC50 values were calculated from the regression curve.
(§2) The cancer cell lines were incubated with serial dilution of each compound (from 313 pg ML^−1 to 5 mg ML^−1) in a 96-well plate for 4 days, and then tested for growth inhibition by MTT-Test.
For orientation: Formazan colour is commonly taken as a measure of viable cells.

Series [2] has as its system hepatocellular carcinoma HepG2 cell line. The series is described as follows: MTT growth inhibition, HepG2. Format: cell-based. The conditions noted are these: for IC50: Homo sapiens, MTT test, 96-well plate, serial dilution, spread in brackets; for sensitivity of treated cancer cells, times higher: comparator not stated. The method, then: as §1, §2
For series [3], the system named is colorectal carcinoma HTC-116 cell line. The series is described as follows: MTT growth inhibition, HTC-116 (HCT 116). Format: cell-based. The settings on record: for IC50: Homo sapiens, HCT-116, MTT test, 96-well plate, serial dilution, spread in brackets; for growth inhibition of third cell line (HCT): result in words. The method, then:
as §1
The cancer cell lines were incubated with serial dilution of each compound (from 313 pg ML^−1 to 5 mg ML^−1) in a 96-well plate for 4 days, and then tested for growth inhibition by MTT-Test. […] Replacing the formyl groups of the two compounds with amino groups (Sub. 6 and Sub. 7) caused remarkable decreasing of cells sensitivities, and accordingly increasing of IC50 values of the two derivatives as shown in table 2. […] Moreover, the sensitivities of the treated cancer cells to 4 and 5 were 6 times higher in case of the […] cell line A459, and even 40 times higher in case of hepatocyte carcinoma cell line HepG2.

In series [4] the test system is Burkitts Lymphoma (BL) cell lines DG-75. The settings on record: does not involve caspases, DNA fragmentation or PARP cleavage; cited from earlier work.

Broadly, the IC50 is the concentration that inhibits the measured activity by half. A lower IC50 goes with higher potency. What is called melting point is the temperature of the solid-liquid transition. Consider `CNCC1CC2c3cccc(Cl)c3C1c1c(Cl)cccc12` (stereo not shown) [Compound 6, 1-(4,5-dichloro-9,10-dihydro-9,10-ethanoanthracen-11-yl)-N-methylmethanamine], for which the melting point is 290 °C. This molecule also yielded an IC50 in series [1] of 25.5 µg/mL (≈ 80.1 µM). Further, it took 12.7 µg/mL (≈ 39.8 µM) to reach half-maximal inhibition in series [2] (IC50).
Take `O=CC1CC2c3c(Cl)cccc3C1c1cccc(Cl)c12` (stereo not shown) [Compound 5, 1,8-dichloro-9,10-dihydro-9,10-ethanoanthracene-11-carbaldehyde]: in series [1], the IC50 came to 3.71 µg/mL (≈ 12.2 µM) and the “sensitivity of treated cancer cells, times higher” value (from here on “sensitivity”) is 6 times. In series [2], the IC50 amounted to 0.65 µg/mL (≈ 2.14 µM) and the “sensitivity” value stood at 40 times. Besides, in series [3], the IC50 worked out at 0.7 µg/mL (≈ 2.31 µM) and the “growth inhibition of third cell line (HCT)” value was “able to inhibit the growth”.
`O=CC1CC2c3cccc(Cl)c3C1c1c(Cl)cccc12` (stereo not shown) [Compound 4, 4,5-dichloro-9,10-dihydro-9,10-ethanoanthracene-11-carbaldehyde]: in series [1], the IC50 was 1.1 µg/mL (≈ 3.63 µM) and the “sensitivity” value is on record as 6 times. Moreover, in series [2], the IC50 was 0.12 µg/mL (≈ 0.396 µM) and the “sensitivity” value amounted to 40 times. For the same molecule, in series [3], the IC50 worked out at 0.4 µg/mL (≈ 1.32 µM) and the “growth inhibition of third cell line (HCT)” value is listed as “able to inhibit the growth”.
`CNCC1CC2c3c(Cl)cccc3C1c1cccc(Cl)c12` (stereo not shown) [Compound 7, 1-(1,8-dichloro-9,10-dihydro-9,10-ethanoanthracen-11-yl)-N-methylmethanamine] displayed a melting point of 310 °C. Also, half-maximal inhibition in series [1] (IC50) required 18.9 µg/mL (≈ 59.4 µM). This molecule showed an IC50 in series [2] of 13.8 µg/mL (≈ 43.4 µM).
On to `CNCCCC12CCC(c3ccccc31)c1ccccc12` [Maprotiline, 9,10-dihydro-N-methyl-9,10-ethanoanthracene-9-propanamine], for which the “in vitro antiproliferative activity against DG-75” value in series [4] is recorded as “antiproliferative agent”.
